One series deals with MCAO rats. Description: MCAO cerebral ischemia-reperfusion injury model. It counts as in vivo, rat. To be noted: for Neurological score (Zelonga): 22 h post-treatment, loganin 30 mg/kg, LA-1 10 mg/kg i.v.; for Neurological score (Zelonga) / Infarct area versus model (TTC staining): edaravone 3 mg/kg. The protocol: A selection of 6–8-week-old Sprague–Dawley (SD) male rats weighing 250 to 280 g were divided into five groups, with 12 rats in each group: sham group, model group (MCAO), edaravone group (3 mg/kg), LA-1 group (10 mg/kg), and loganin group (30 mg/kg). In all groups of rats, anesthesia was induced with 3% isoflurane and then maintained at 2.5% isoflurane during surgery. Briefly, a 1–2 cm incision was made along the midline of the rat’s neck to expose the right carotid artery. Then, a nylon suture (A5-243650, Beijing Cinontech Co. Ltd., Beijing, China) coated with silica gel was inserted through the external carotid artery (ECA) into the middle […], which was then occluded. In this instance, the monofilament was not inserted in the sham group. After 2 h, the nylon suture was removed to allow reperfusion, and different drugs were immediately administered to the rats via the tail vein. Additionally, the sham and model groups received an equivalent dose of distilled water, with a dosage of 2 mL/kg. Cerebral blood flow was measured using a laser speckle flow imaging system (RWD Life science Co., Ltd., RFLSI ZW, Shenzhen, China) at three distinct time points: before ischemia, 2 h after ischemia, and 22 h after reperfusion. Neurological function scores for the treatment groups were assessed blindly at 22 h post-MCAO using the ZeLonga scoring system, after which the anesthetized rats were quickly euthanized. The brain tissue was harvested and then sectioned into seven slices, with six slices subjected to 2,3,5-triphenyltetrazolium chloride (TTC) staining to calculate the brain infarct area, while the remaining slice was preserved for future use.
(§1) Fresh brain, heart, liver, spleen, and kidney tissues from rats were fixed in 4% paraformaldehyde, dehydrated, embedded in paraffin, and sectioned into 4 µm slices. For HE staining, the sections were deparaffinized using a dewaxing agent (G1128, Solarbio, Beijing, China), rehydrated in ethanol of various concentrations, stained with hematoxylin and eosin, dehydrated, and sealed with neutral resin. For Nissl staining, thin sections were immersed in the staining solution for 15 min (G1086, Solarbio, Beijing, China), washed with water, rapidly dehydrated with absolute ethanol, and cleared in xylene for 5 min. The sections were then mounted with neutral resin. Finally, the sections were observed using a light microscope (Nikon Eclipse E100, Tokyo, Japan) and analyzed with a 3D viewer.
Paraffin sections were prepared as described for HE staining. The sections were dewaxed and antigen retrieval was performed using citric acid (pH 6.0). The sections were blocked in 0.1% Triton in PBS for 15 min. TUNEL reaction solution (TDT:dUTP:buffer = 1:5:50) was added, followed by blocking with BSA. After washing, sections were incubated with the secondary antibody (Cy3-goat anti-rabbit, GB21303, 1:300) at room temperature for 50 min. Finally, after PBS washing, the sections were stained with DAPI, mounted with an anti-fading mounting medium, and images were acquired using a fluorescence microscope (Nikon Eclipse C1, Tokyo, Japan).

In series [1] the test system is BEnd.3 cells. Nature of the series: Cellular uptake in BEnd.3 cells (LC-MS/MS). It is filed as in vitro ADME, Mouse. The conditions noted are these: 6.25 μM; for Intracellular amount over time: 3 or 6 h incubation. The protocol:
BEnd.3 cells were seeded in 60mm dishes at 2 × 10⁶ cells/mL, with 5 mL of DMEM containing 10% FBS. After 12 h, the medium was replaced with 5 mL fresh medium, followed by 1 mL of 6.25 μM LA-1 solution. Cells were incubated for 3 or 6 h, washed twice with PBS, and harvested using 1 mL of HPLC-grade methanol. After vortexing for 2 min and centrifuging at 13,300 rpm for 5 min (6766-HS corning® High Speed Microcentrifuge, Corning, NY, USA), the supernatant was concentrated and reconstituted with 200 μL methanol. Samples were centrifuged again at 13,300 rpm for 10 min, and the supernatant was analyzed via LC–MS (ACQUITY UPLC I-Class/Xevo TQ-XS, Waters, Milford, MA, USA). Standard curves were prepared by serial dilutions of HPLC-grade methanol with concentrations ranging from 1 μg/mL to 100 pg/mL for each LA-1.

Series [2] in a line: In vivo pharmacokinetic study, plasma. The conditions noted are these: SD rats, intravenous tail injection 30 mg/kg, LC-MS/MS, n = 3. Set-up: species or system rat. The protocol: We purchased male Sprague-Dawley (SD) rats weighing between 200 and 220 g, which had been catheterized in the jugular vein, from Beijing Sinocon Pharmaceutical Technology Co., Ltd. (Beijing, China). The rats were divided into two groups: LA-1 group and loganin group, with three rats in each group. First, 200 μL of whole blood was collected from each rat at time point zero as a blank control. Subsequently, LA-1 and loganin were administered tail via injection at a dose of 30 mg/kg, dissolved in 0.9% saline. For the pharmacokinetics of the intravenously administered drugs, blood samples of 200 μL were collected from the rats at 5, 15, 30, 45 min, 1, 1.5, 2, 3, 6, 8, 12, and 24 h, using heparinized anticoagulation tubes for processing. After each blood collection, 200 μL of perfusion solution was injected into the rats through the catheter to maintain their physiological status. To obtain the rat plasma, the samples were centrifuged immediately at 3500 rpm for 10 min (5810R) after collection. Methanol (300 μL) was added to plasma samples (100 μL) to precipitate plasma proteins, then rotary evaporation at 35 °C was used to remove methanol from the samples. The LA-1 and loganin were quantified by LC–MS/MS analysis (ACQUITY UPLC I-Class/Xevo TQ-XS, Waters, Milford, MA, USA).

The test system of series [3] is BEnd.3 cells. Nature of the series: MTT cytotoxicity assay on BEnd.3 cells. It counts as cell-based, Mouse. To be noted: 24 h treatment, all three concentrations, Figure S6. On the procedure:
Mouse brain microvascular endothelial cells (BEnd.3) were cultured in DMEM medium containing 10% FBS and maintained at 37 °C in a humidified atmosphere with 5% CO2. Drug solutions were prepared by diluting in PBS to the desired concentrations. Cells were seeded at a density of 4000 cells per well in 96-well plates. Once the cells had adhered, 25 μL of LA-1 or loganin solutions at varying concentrations were added to each well, followed by a 24 h incubation. BEnd.3 cells were treated with 3.12 or 6.25 μM of LA-1 or loganin for 24 h, followed by exposure to 200 μM tertiary-butylhydroperoxide (TBHP) for 4 h to induce oxidative stress. After the treatments, 25 μL of MTT solution (5 mg/mL) was added to each well, and the cells were incubated for an additional 4 h. The supernatant was then carefully removed, and the formazan crystals were dissolved in 150 μL of DMSO. Plates were shaken at room temperature for 15 min, and absorbance was measured at 490/570 nm using a microplate reader (Molecular Devices, SpectraMax ABS, San Jose, CA, USA). Cell viability = (Absorbance (drug well))/(Absorbance (control well)) × 100%

Series [4] can be described thus: Particle size and zeta potential. It counts as physicochemical. The conditions noted are these: laser nanoparticle sizer Nano-ZS90. The protocol:
The size distribution and zeta potential of LA-1 and loganin were determined using a laser nanoparticle sizer (Nano-ZS90, Malvern Instruments Ltd., Malvern, Worcestershire, UK).

Series [5] is described as follows: Morphology by TEM, SEM and AFM. It is filed as physicochemical. To be noted: SEM, AFM, samples in deionized water, dried. The protocol:
Each sample was further diluted to 0.1 mg/mL, and 10 μL was placed dropwise onto copper grids and dried at room temperature for 7 days. Transmission electron microscopy (TEM, […], Tokyo, Japan) and scanning electron microscopy (SEM, Hitachi, S-4800, Tokyo, Japan) were used to observe the morphology. In total, 1 mg of LA-1 or loganin was ultrasonically dispersed in 1 mL of deionized water. Then, 100 μL of the samples were dropped onto 10 × 10 mm mica sheets and air-dried overnight. The surface morphology was characterized by atomic force microscopy (AFM, Bruker, Multimode 8, Bruker, Billerica, Germany).

The test system of series [6] is BEnd.3 cells. Description: Impact of integrin αvβ3 inhibitor c(RGDfK) on LA-1 uptake in BEnd.3 cells. To be noted: BEnd.3 cells pretreated 1 h with 100 μM c(RGDfK) (method: 20 nM), then 6.25 μM compound for 3 or 6 h, LC-MS/MS. It counts as in vitro ADME, Mouse. On the procedure: BEnd.3 cells were seeded at 2 × 10⁶ cells/mL in […], with 5 mL DMEM containing 10% FBS. After 12 h, the medium was replaced with 5 mL fresh medium and 1 mL 20 nM c(RGDfK). After 1 h, 1 mL of 6.25 μM compound solution was added, followed by incubation for 3 or 6 h. Cells were washed twice with PBS, collected in 1 mL of HPLC-grade methanol, and centrifuged at 13,300 rpm for 5 min (6766-HS corning® High Speed Microcentrifuge, Corning, NY, USA). The supernatant was concentrated and reconstituted in 200 μL methanol before a final 10 min centrifugation. The supernatant was then used for LC–MS/MS (ACQUITY UPLC I-Class/Xevo TQ-XS, Waters, Milford, MA, USA) analysis.

A short description of series [7]: H&E staining of heart, liver, spleen and kidney (biosafety in vivo). Set-up: species or system rat. The conditions noted are these: Figure S7. On the procedure: as §1
Series [8] can be described thus: Intra-brain distribution after ischemic injury. It counts as in vivo, rat. To be noted: MCAO rats, LA-1 10 mg/kg vs loganin 30 mg/kg i.v., 3 h after administration, right hemisphere, LC-MS/MS, n = 3. On the procedure:
To investigate the distribution of LA-1 and loganin within the brain, the experimental protocol was as follows: First, the rats were subjected to 2 h of induced ischemia, after which the filament was removed to allow for reperfusion. Subsequently, LA-1 (10 mg/kg) and loganin (30 mg/kg) were administered via tail vein injection. […] At the 3 h time point, the rats were anesthetized, perfused with saline via the heart, and then euthanized to collect brain tissue. The brain tissue was divided into left and right hemispheres, with the right hemisphere representing the ischemic region. The right hemisphere was placed into a 5 mL centrifuge tube, and 600 μL of pre-chilled PBS was added, followed by homogenization on ice. A 200 μL aliquot of the homogenate was combined with 200 μL of chromatography-grade methanol and 200 μL of chromatography-grade acetonitrile, and subjected to ultrasonic treatment for 5 min. The mixture was then centrifuged at 13,000 rpm for 10 min at 4 °C, and the supernatant was collected for concentration. After concentration, 200 μL of chromatography-grade methanol was added for reconstitution, followed by another round of high-speed centrifugation to obtain the supernatant. Finally, the target molecules were quantified using LC–MS/MS (ACQUITY UPLC I-Class/Xevo TQ-XS, Waters, Milford, MA, USA). […]

[9] abbreviates: 22 h reperfusion, loganin 30 mg/kg i.v.
[10] abbreviates: LA-1 10 mg/kg, loganin 30 mg/kg i.v.

Results on three compounds are retold here after publication PMC11591307, “An RGD-Conjugated Prodrug Nanoparticle with Blood–Brain–Barrier Penetrability for Neuroprotection Against Cerebral Ischemia–Reperfusion Injury” (Antioxidants, 2024).

Residues, ends and D or L forms follow the SMILES beside them. *: point of attachment. X1 = C[C@@H]1[C@H]2[C@H](O[C@@H]3O[C@H](CO)[C@@H](O)[C@H](O)[C@H]3O)OC=C(C(=O)*)[C@H]2C[C@@H]1O

Take `CC1=NN(c2ccccc2)C(=O)C1` [edaravone, Edaravone]: the “Neurological score (Zelonga)” value with MCAO rats was “reduction trend in neurological score but without statistically significant difference”. For the same compound, the “Infarct area versus model (TTC staining)” value with MCAO rats (setting [9]) is “significant infarct area reduction”.
For `COC(=O)C1=CO[C@@H](O[C@@H]2O[C@H](CO)[C@@H](O)[C@H](O)[C@H]2O)[C@@H]2[C@@H](C)[C@@H](O)C[C@H]12` [Loganin], in the series on BEnd.3 cells [1], the “Intracellular amount over time” value is “reached a plateau after 3 h”. Besides, in series [2], the Plasma half-life is on record as about 45 min and the “Time at which plasma concentration was below the limit of detection / undetectable” value is recorded as 180 min. The “Cell viability (cytotoxicity)” value with BEnd.3 cells [3] is “no significant change”. In series [4], the “polydispersity index (PDI)” value is 0.194. For the same compound, in [4] (mean ± SD), the “Particle Size” value was 231.5 ± 81.23 nm and the “Zeta Potential” value is recorded as −4.16 ± 4.40 mV. Moreover, in the series on MCAO rats, the “Neurological score (Zelonga)” value is “reduction trend in neurological score but without statistically significant difference”. Further, the “Infarct area (TTC staining)” value with MCAO rats (22 h reperfusion, LA-1 10 mg/kg, loganin 30 mg/kg i.v.) was found to be 16.843%. Also, the “Infarct area versus model (TTC staining)” value in the series on MCAO rats (setting [9]) is reported as “significant infarct area reduction”. Moreover, in the series on MCAO rats (setting [10]), the “H&E staining of cortical neurons” value is “improved the morphology, though to a lesser extent than LA-1” and the “Nissl staining of neurons” value was “the recovery was less pronounced compared to LA-1”. In [5], the Nanostructure morphology result is “irregular and unevenly dispersed”.
For the compound `CC(C)[C@H](NC(=O)[C@H](CC(=O)O)NC(=O)CNC(=O)[C@H](CCCNC(=N)N)NC(=O)C1=CO[C@@H](O[C@@H]2O[C@H](CO)[C@@H](O)[C@H](O)[C@H]2O)[C@@H]2[C@@H](C)[C@@H](O)C[C@H]12)C(=O)O` [LA-1, LA-Arg-Gly-Asp-Val] (X1-RGDV-OH), the “Decrease of cellular uptake in the presence of c(RGDfK)” value with BEnd.3 cells [6] is listed as “approximately 3 fold”. Besides, in the series with BEnd.3 cells [1], the “Intracellular amount over time” value is “continued to accumulate”. Moreover, in the series on BEnd.3 cells [1] (6 h incubation, n = 3), the “Cellular uptake of LA-1 relative to loganin” value is “approximately 2148 fold”. Also, the “Time at which plasma concentration was below the limit of detection / undetectable” value in [2] turned out to be 90 min. Moreover, the half-life (commonly the time needed for the level to fall by half in the phase considered) in series [2] (male, Sprague-Dawley, rat) was about 10 min. The “Pathophysiological changes in heart, liver, spleen and kidney tissue sections” value in series [7] is reported as “No significant pathophysiological changes”. Further, the “Brain accumulation in ischemic brain tissue” value in series [8] is “dramatically higher than that of loganin”. Also, the “Cell viability (cytotoxicity)” value in the series with BEnd.3 cells [3] is listed as “no significant change”.
